The source of these data is ChEMBL document CHEMBL4706488, “Design, synthesis and biological evaluation of 2-amino-4-(1,2,4-triazol)pyridine derivatives as potent EGFR inhibitors to overcome TKI-resistance” (Eur J Med Chem, 2020).

Activity calls are given as the source filed them. The rule behind the calls is not given here.

In general, IC50 refers to the concentration that inhibits the measured activity by half.

The subject of experiment [1] is NCI-H1975. Put plainly: cells. Type of experiment: functional, cell-based. The conditions noted are these: Homo sapiens.
Experiment [2] concerns NCI-H1975. Put plainly: Induction of apoptosis in human NCI-H1975 cells assessed as necrotic cells at 10 uM by annexinV-FITC/propidium iodide staining based flow cytometry analysis (reference value: 0.44 %). Type of experiment: functional. (In general: A flow cytometer gives signals particle by particle.)
For a further experiment, the system named is U87MG Human EGFR vIII. The experiment is described as follows: Induction of apoptosis in human U87MG Human EGFR vIII cells by annexinV-FITC/propidium iodide staining based flow cytometry analysis. Type of experiment: functional, cell-based.
Experiment [3] in a line: Potency index, ratio of osimertinib IC50 to test compound IC50 for antiproliferative activity against human U87MG Human EGFR vIII cells overexpressing EGFRvIII mutant assessed as inhibition of cell proliferation by MTT assay. Type of experiment: functional. Background: Tetrazolium dyes change colour on reduction, which living cells bring about.
In experiment [4] the test system is NCI-H1975. Put plainly: Induction of apoptosis in human NCI-H1975 cells assessed as early apoptotic cells at 5 uM by annexinV-FITC/propidium iodide staining based flow cytometry analysis (reference value: 0.53 %). Type of experiment: functional.
Experiment [5] deals with NCI-H1975. The experiment is described as follows: Induction of apoptosis in human NCI-H1975 cells assessed as live cells at 5 uM by annexinV-FITC/propidium iodide staining based flow cytometry analysis (reference value: 98.6 %). Type of experiment: functional.
Experiment [6] is described as follows: Potency index, ratio of lazertinib IC50 to test compound IC50 for antiproliferative activity against human U87MG Human EGFR vIII cells overexpressing EGFRvIII mutant assessed as inhibition of cell proliferation by MTT assay. Type of experiment: functional.
Experiment [7] deals with NCI-H1975. The experiment is described as follows: Induction of apoptosis in human NCI-H1975 cells assessed as early apoptotic cells at 20 uM by annexinV-FITC/propidium iodide staining based flow cytometry analysis (reference value: 0.53 %). Type of experiment: functional.
Experiment [8] relates to NCI-H1975. The experiment is described as follows: Induction of apoptosis in human NCI-H1975 cells assessed as late apoptotic cells at 20 uM by annexinV-FITC/propidium iodide staining based flow cytometry analysis (reference value: 0.42 %). Type of experiment: functional.
The test system of experiment [9] is NCI-H1975. Put plainly: Induction of apoptosis in human NCI-H1975 cells assessed as necrotic cells at 20 uM by annexinV-FITC/propidium iodide staining based flow cytometry analysis (reference value: 0.44 %). Type of experiment: functional.
Experiment [10] has as its system NCI-H1975. The experiment is described as follows: Induction of apoptosis in human NCI-H1975 cells assessed as late apoptotic cells at 5 uM by annexinV-FITC/propidium iodide staining based flow cytometry analysis (reference value: 0.42 %). Type of experiment: functional.
The subject of experiment [11] is NCI-H1975. Put plainly: Induction of apoptosis in human NCI-H1975 cells assessed as live cells at 10 uM by annexinV-FITC/propidium iodide staining based flow cytometry analysis (reference value: 98.6 %). Type of experiment: functional.
A further experiment has as its system U-87 MG. Put plainly: cells. Type of experiment: functional, cell-based, U-87MG ATCC. The note with it: Homo sapiens.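 Also: antiproliferative effect on U-87 MG cells carrying wild-type EGFR, growth inhibition read out by MTT assay.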
Experiment [12] concerns the target Epidermal growth factor receptor (Homo sapiens, UniProt P00533). Put plainly: biochemical. Type of experiment: cell-based, Sf21.
Description: Inhibition of wild type N-terminal GST-tagged human EGFR cytoplasmic domain (669 to 1210 residues) expressed in baculovirus infected Sf21 cells using biotin-labeled TK substrate preincubated for 30 mins followed by substrate and ATP addition at Km concentration and further incubated for 20 mins by HTRF assay
In experiment [13] the test system is NCI-H1975. The experiment is described as follows: Induction of apoptosis in human NCI-H1975 cells assessed as necrotic cells at 5 uM by annexinV-FITC/propidium iodide staining based flow cytometry analysis (reference value: 0.44 %). Type of experiment: functional.
Experiment [14] has as its system NCI-H1975. Put plainly: Induction of apoptosis in human NCI-H1975 cells assessed as early apoptotic cells at 10 uM by annexinV-FITC/propidium iodide staining based flow cytometry analysis (reference value: 0.53 %). Type of experiment: functional.
The subject of experiment [15] is NCI-H1975. Put plainly: Induction of apoptosis in human NCI-H1975 cells assessed as live cells at 20 uM by annexinV-FITC/propidium iodide staining based flow cytometry analysis (reference value: 98.6 %). Type of experiment: functional.
Experiment [16] deals with Epidermal growth factor receptor (Homo sapiens, UniProt P00533, L858R/T790M). The experiment is described as follows: biochemical. Type of experiment: cell-based, Sf21.
Epidermal growth factor receptor (Homo sapiens, UniProt P00533, L858R/T790M), sequence (P00533 25-1210 T790M/L858R limits assumed): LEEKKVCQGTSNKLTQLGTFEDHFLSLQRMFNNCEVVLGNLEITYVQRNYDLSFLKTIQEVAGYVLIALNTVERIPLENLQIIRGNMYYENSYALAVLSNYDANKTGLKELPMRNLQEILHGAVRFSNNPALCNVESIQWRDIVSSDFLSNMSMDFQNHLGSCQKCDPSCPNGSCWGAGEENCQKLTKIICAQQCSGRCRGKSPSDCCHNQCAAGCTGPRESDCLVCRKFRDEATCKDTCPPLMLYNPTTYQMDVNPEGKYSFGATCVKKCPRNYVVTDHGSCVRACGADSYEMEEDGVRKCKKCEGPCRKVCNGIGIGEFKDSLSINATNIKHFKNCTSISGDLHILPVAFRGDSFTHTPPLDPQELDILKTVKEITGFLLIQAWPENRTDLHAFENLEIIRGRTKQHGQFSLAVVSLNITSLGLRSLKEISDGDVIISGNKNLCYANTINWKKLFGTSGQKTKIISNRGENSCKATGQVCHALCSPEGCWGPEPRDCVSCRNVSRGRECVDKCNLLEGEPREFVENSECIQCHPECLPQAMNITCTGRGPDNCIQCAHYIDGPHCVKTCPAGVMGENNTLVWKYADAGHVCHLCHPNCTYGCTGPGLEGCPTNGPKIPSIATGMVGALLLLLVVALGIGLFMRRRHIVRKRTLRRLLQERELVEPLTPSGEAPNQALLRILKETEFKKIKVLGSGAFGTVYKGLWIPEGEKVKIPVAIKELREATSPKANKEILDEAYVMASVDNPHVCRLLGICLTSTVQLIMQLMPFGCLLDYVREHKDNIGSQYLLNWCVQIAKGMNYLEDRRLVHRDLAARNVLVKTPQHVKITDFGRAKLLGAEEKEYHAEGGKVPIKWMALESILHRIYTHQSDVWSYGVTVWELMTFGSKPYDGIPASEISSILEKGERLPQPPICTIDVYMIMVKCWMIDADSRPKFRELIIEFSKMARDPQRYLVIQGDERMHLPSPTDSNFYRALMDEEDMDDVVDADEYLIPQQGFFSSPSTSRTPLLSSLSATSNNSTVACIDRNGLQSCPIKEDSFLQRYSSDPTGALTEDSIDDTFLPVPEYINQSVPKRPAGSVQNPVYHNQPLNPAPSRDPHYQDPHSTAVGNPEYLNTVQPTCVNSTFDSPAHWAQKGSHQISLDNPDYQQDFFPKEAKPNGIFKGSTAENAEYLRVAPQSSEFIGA
The next experiment in a line: cells. Type of experiment: functional, tissue-based. The note with it: Homo sapiens, U87MG Human EGFR vIII.
For another experiment, the system named is A-431. The experiment is described as follows: cells. Type of experiment: functional, cell-based. The conditions noted are these: Homo sapiens.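 Also: antiproliferative test in A-431 cells carrying wild-type EGFR, with cell growth inhibition read by MTT assay.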
For experiment [17], the system named is NCI-H1975. Put plainly: Induction of apoptosis in human NCI-H1975 cells assessed as late apoptotic cells at 10 uM by annexinV-FITC/propidium iodide staining based flow cytometry analysis (reference value: 0.42 %). Type of experiment: functional.

Epidermal growth factor receptor (Homo sapiens, UniProt P00533), sequence (P00533 whole entry): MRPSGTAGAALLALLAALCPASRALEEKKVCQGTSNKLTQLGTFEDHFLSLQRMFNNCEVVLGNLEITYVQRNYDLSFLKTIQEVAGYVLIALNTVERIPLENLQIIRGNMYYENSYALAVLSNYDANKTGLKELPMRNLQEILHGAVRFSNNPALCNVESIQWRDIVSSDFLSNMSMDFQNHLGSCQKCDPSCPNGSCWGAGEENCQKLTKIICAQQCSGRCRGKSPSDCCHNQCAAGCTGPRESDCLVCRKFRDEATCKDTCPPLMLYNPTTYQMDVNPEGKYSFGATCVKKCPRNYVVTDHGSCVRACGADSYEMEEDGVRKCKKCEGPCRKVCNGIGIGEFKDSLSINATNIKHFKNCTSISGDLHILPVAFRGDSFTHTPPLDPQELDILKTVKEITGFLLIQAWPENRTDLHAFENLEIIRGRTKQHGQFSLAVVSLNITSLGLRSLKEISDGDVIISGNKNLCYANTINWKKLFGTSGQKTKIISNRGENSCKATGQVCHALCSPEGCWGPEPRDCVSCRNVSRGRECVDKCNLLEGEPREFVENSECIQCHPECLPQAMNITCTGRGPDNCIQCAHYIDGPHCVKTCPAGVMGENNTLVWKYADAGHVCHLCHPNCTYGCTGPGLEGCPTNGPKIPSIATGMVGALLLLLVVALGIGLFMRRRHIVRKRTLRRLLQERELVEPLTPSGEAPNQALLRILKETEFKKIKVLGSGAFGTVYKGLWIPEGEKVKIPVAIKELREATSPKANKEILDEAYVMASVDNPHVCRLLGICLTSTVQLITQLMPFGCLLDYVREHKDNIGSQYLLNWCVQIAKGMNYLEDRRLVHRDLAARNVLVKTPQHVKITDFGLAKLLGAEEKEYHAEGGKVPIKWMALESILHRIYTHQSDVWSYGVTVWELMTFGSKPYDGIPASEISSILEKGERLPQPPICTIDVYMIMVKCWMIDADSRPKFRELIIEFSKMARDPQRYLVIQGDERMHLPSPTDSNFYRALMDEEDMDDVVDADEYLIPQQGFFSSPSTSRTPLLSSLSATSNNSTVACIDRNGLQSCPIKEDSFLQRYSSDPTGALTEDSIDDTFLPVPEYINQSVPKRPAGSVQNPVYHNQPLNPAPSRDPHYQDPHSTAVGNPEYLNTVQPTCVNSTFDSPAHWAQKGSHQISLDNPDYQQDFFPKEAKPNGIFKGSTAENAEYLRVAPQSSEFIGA
Description for A-431: Antiproliferative activity against human A-431 cells harboring wild type EGFR assessed as inhibition of cell growth by MTT assay
Description for U-87 MG: Antiproliferative activity against human U-87MG cells harboring wild type EGFR assessed as inhibition of cell growth by MTT assay

On to `C=CC(=O)Nc1cc(Nc2cc(-n3c(SC)nnc3-c3ccc(F)cc3)ccn2)ccc1N(C)CCN(C)C`, for which the concentration for half-maximal inhibition (IC50) turned out to be 5.3 µM in the experiment on NCI-H1975 [1]; 2.4 µM with U-87 MG; 0.156 µM in experiment [12]; 0.213 µM in [16]; 4.1 µM in the experiment “cells”; 6 µM in the experiment on A-431. Also, the Activity is 2.14% in the experiment on NCI-H1975 [2]; 2.52% in the experiment with NCI-H1975 [4]; 93.8% with NCI-H1975 [5]; 18% in the experiment on NCI-H1975 [7]; 39% in the experiment on NCI-H1975 [8]; 10.7% in the experiment with NCI-H1975 [9]. Moreover, the Activity with NCI-H1975 [10] amounted to 2.77%; with NCI-H1975 [11], 91.4%; in the experiment on NCI-H1975 [13] it was 0.92%; in the experiment with NCI-H1975 [14] it was 2.63%; in the experiment with NCI-H1975 [15], 32.3%; in the experiment on NCI-H1975 [17], 3.86%. Moreover, the result in the experiment on U87MG Human EGFR vIII was inactive. For the same compound, the results for the “Ratio IC50” value in [3] and in [6] were 3 and 25, respectively.
